This note sets out measurements from patent US20090209605A1, “NEMATICIDAL COMPOSITIONS” (Devgen N.V., priority 2004, published 2009).

What all share (format): in vivo
The test system of one assay is Meloidogyne incognita. Nature of the assay: Root infestation on agar plate: root knot count on potato microplant roots. As to conditions: 60 μM in agar, galls counted 5 weeks after inoculation, four replicates. The method in brief:
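Potato cv. Desirée microplants were grown 2-3 weeks on agar at 20 °C, and compound diffused in from DMSO for 2 days (60 μM in agar). Plates were then inoculated with ~400 axenic M. incognita juveniles. Root galls were counted 5 weeks later in the dark at 20 °C, with four replicates per compound and root toxicity noted.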

The subject of assay [1] is Meloidogyne incognita nematodes. Nature of the assay: Pot Assay 1: Meloidogyne infection of potato, egg masses/galls on roots. The conditions noted are these: potato in pot, week 8 after inoculation. The procedure, abridged:
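Potato (cv. Bintje) grown in sand pots at 14–18 °C in greenhouse. Compound in DMSO spread on sand one day before inoculation with ~1500 M. incognita juveniles; concentration assumes full diffusion in pot. Root galls counted 8 weeks post-inoculation, plant development also scored; triplicates, aldicarb and DMSO/untreated controls.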

Another assay relates to Heterodera nematode. Nature of the assay: Pot Assay 3: Heterodera infection of sugar beet, crop vigor and crop height. As to conditions: infested soil. An excerpt: The soil used in this assay originated from a Heterodera nematode infested sugar plot of which the infestation was confirmed by means of several soil analyses. Each pot was filled up with a soil mixture composed as follows: a) the infested soil was constituted by silt loam soil (about 600 g/pot) mixed with sterile peat (about 600 g/pot) and sterile cork (about 200 g/pot); b) the sterile soil was instead constituted only by sterile peat (1200 g/pot) and sterile cork (200 g/pot).
Each compound or compound mixture as described herein was tested in 4 different rates with 4 replicates per rate. One pot per replicate was used in which 18 beava sugar beet seeds (variety GEA (KWS)) were sown. After crop germination, the number of plants was reduced to 10 plants. The 4 rates added to the soil of the tested compounds or compound mixtures were 0.05 mg, 0.20 mg, 1 mg and 5 mg. These amounts translate to field application rates respectively as 30, 120, 600 and 3000 g per hectare.
Efficacy of the compounds described herein as nematicide was measured by visual inspection of the crop vigor and the crop height. The crop vigor evaluation is based on a 0-100 scale, where 0 is “no vigor” and 100 is “maximum vigor”. The crop height development is based on a measurement, in cm, per plant, excluding the root system.
Positive control plants were treated with Oxamyl (Vydate 5 G, 5% gr) at a rate of 40 kg fp per ha. Negative controls involved single negative controls (no compound, with nematode infested soil; referenced as “Untreated 1”) and double negative controls (no compound, sterile soil; referenced as “Untreated 2”).

Assay [2] concerns root-knot nematode (Meloidogyne spp). Nature of the assay: Nematicide field trial on tomato: root galling and yield. The conditions noted are these: for Average root galling: 0-5 Lamberti scale. As to the method:
Open field tomatoes (Lycopersicon esculentum, variety incas) were grown on sandy soil with a natural root-knot nematode (Meloidogyne spp) population. Soil samples, collected prior to planting, contained on average 113 J2 juveniles per 100 g soil. A program of 5 applications with intervals of about 14 days was started two days after transplantation.
(§1) An experimental pattern at Complete Randomized Blocks with four replicas was adopted. Besides the experimental products, each test also included an untreated control and a treatment with the standard commercial product VYDATE 10L (10%) applied in accordance to label instructions.
The read-outs are the average yield of the marketable tomatoes per plant (Table 7). The level of nematode attack of the root system at the time of harvesting was assessed by means of the lamberti scoring.

Assay [3] relates to stubby root nematodes (Paratrichodorus), stunt nematodes (Tylenchorhynchus spp.), root lesion nematodes (Pratylenchus spp.) and root knot nematodes …. Nature of the assay: Nematicide field trial on carrots: % deformed carrots. Here is the method:
Garden carrots were grown in the open field. The soil contained high levels of stubby root nematodes (Paratrichodorus), stunt nematodes (Tylenchorhynchus spp.), root lesion nematodes (Pratylenchus spp.) and root knot nematodes (Meloidogyne spp.).
as §1
In carrots, nematodes cause deformation such as stunting, dwarfing, twisting, splitting and bearding. For these experiments, the total percentage of deformed carrots were considered, as these are not marketed for human consumption and are of no commercial interest.
Three different tests have been performed (Tables 9, 10 and 11), each containing an untreated and commercial reference control. All treatments were statistically different from untreated control.

Where [4] appears, read: Product Rate 4 (footnote g ai/ha).
The mark [5] stands for this setting: Product Rate 8 (footnote g ai/ha).

Consider `CCCCc1c(C)nc(NCC)nc1OS(=O)(=O)N(C)C` [XLIII], for which the “Root knot count, average of the replicate counts” value in the assay on Meloidogyne incognita stood at 8. The “number of egg masses (galls) on roots, Replicate 3” value was 30 in assay [1] (0.5 μM), 25 in assay [1] (2 μM), 10 in assay [1] (10 μM) and 5 in assay [1] (50 μM). For the same molecule, the “number of egg masses (galls) on roots, Replicate 2” value stood at 35 in assay [1] (2 μM), 5 in assay [1] (10 μM) and 15 in assay [1] (50 μM). For the same molecule, the “number of egg masses (galls) on roots, Replicate 1” value in assay [1] (10 μM) came out at 15; in assay [1] (50 μM) it was 0. Further, the “crop height (cm)” value is 14 cm in the assay on Heterodera nematode (Rate 1 mg) and 15 cm with Heterodera nematode (Rate 5 mg). Further, the “crop vigor (max 100%)” value with Heterodera nematode (Rate 1 mg) turned out to be 80%; in the assay with Heterodera nematode (Rate 5 mg), 100%. In addition, the entries for the “Average yield of marketable fruits” value in assay [2] (setting [4]) and in assay [2] (setting [5]) were 1.28 kg/plant/pot and 1.25 kg/plant/pot, respectively. Moreover, the Average root galling in assay [2] (setting [4]) came to 1.1; in assay [2] (setting [5]), 1.6. In addition, the “% total deformed” value in assay [3] (test of Table 9, Product Rate 500 g ai/ha) was 35.53%; in assay [3] (test of Table 9, Product Rate 1500 g ai/ha), 41.34%; in assay [3] (test of Table 9, Product Rate 3000 g ai/ha) it was 41.02%.
